From PubChem BioAssay (NCI)
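In this assay, cells in 96-well plates receive the compound at five concentrations for 48 hours. Endpoints are linearly interpolated between the surrounding concentrations. TGI is the concentration that stops growth completely.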

Legend:
Test in all cases: DTP human tumour cell line panel, 48 h
OVCAR-5 ovarian = system: OVCAR-5 ovarian
UACC-257 melanoma = system: UACC-257 melanoma
SK-MEL-28 melanoma = system: SK-MEL-28 melanoma
DMS 114 small cell lung = system: DMS 114 small cell lung
SK-OV-3 ovarian = system: SK-OV-3 ovarian
PC-3 prostate = system: PC-3 prostate
KM20L2 colon = system: KM20L2 colon
TK-10 renal = system: TK-10 renal
NCI/ADR-RES ovarian = system: NCI/ADR-RES ovarian
SK-MEL-5 melanoma = system: SK-MEL-5 melanoma
BT-549 breast = system: BT-549 breast
MDA-MB-435 = system: MDA-MB-435
IGROV1 ovarian = system: IGROV1 ovarian
M14 melanoma = system: M14 melanoma
EKVX NSCLC = system: EKVX NSCLC
CCRF-CEM leukemia = system: CCRF-CEM leukemia
MDA-MB-231 breast = system: MDA-MB-231 breast
DMS 273 small cell lung = system: DMS 273 small cell lung
COLO 205 colon = system: COLO 205 colon
U251 CNS = system: U251 CNS
SNB-19 CNS = system: SNB-19 CNS
XF 498 CNS = system: XF 498 CNS
SF-539 CNS = system: SF-539 CNS
SW-620 colon = system: SW-620 colon
HOP-18 NSCLC = system: HOP-18 NSCLC
HL-60(TB) leukemia = system: HL-60(TB) leukemia
RXF 393 renal = system: RXF 393 renal
OVCAR-8 ovarian = system: OVCAR-8 ovarian
SK-MEL-2 melanoma = system: SK-MEL-2 melanoma
786-0 renal = system: 786-0 renal
NCI-H23 lung = system: NCI-H23 lung
LXFL 529 NSCLC = system: LXFL 529 NSCLC
HCT-15 colon = system: HCT-15 colon
ACHN renal = system: ACHN renal
MCF7 breast = system: MCF7 breast
A549 NSCLC = system: A549 NSCLC
OVCAR-4 ovarian = system: OVCAR-4 ovarian
T-47D breast = system: T-47D breast
CAKI-1 renal = system: CAKI-1 renal
HCC-2998 colon = system: HCC-2998 colon
SF-268 CNS = system: SF-268 CNS
UACC-62 melanoma = system: UACC-62 melanoma
SF-295 CNS = system: SF-295 CNS
M19-MEL melanoma = system: M19-MEL melanoma
HCT-116 colon = system: HCT-116 colon
UO-31 renal = system: UO-31 renal
MOLT-4 leukemia = system: MOLT-4 leukemia
HOP-92 NSCLC = system: HOP-92 NSCLC
HOP-62 NSCLC = system: HOP-62 NSCLC
RPMI-8226 leukemia = system: RPMI-8226 leukemia
MALME-3M melanoma = system: MALME-3M melanoma
OVCAR-3 ovarian = system: OVCAR-3 ovarian
DLD-1 colon = system: DLD-1 colon
KM12 colon = system: KM12 colon
DU-145 prostate = system: DU-145 prostate
HS 578T breast = system: HS 578T breast
SNB-75 CNS = system: SNB-75 CNS
SN12C renal = system: SN12C renal
SR leukemia = system: SR leukemia
NCI-H226 lung = system: NCI-H226 lung
A498 renal = system: A498 renal
MDA-N = system: MDA-N
NCI-H460 lung = system: NCI-H460 lung
K-562 leukemia = system: K-562 leukemia
SNB-78 CNS = system: SNB-78 CNS
LOX IMVI melanoma = system: LOX IMVI melanoma
HT29 colon = system: HT29 colon
RXF-631 renal = system: RXF-631 renal
NCI-H522 lung = system: NCI-H522 lung

C=C(CN(C)C)C(=O)c1ccc(OC)cc1
TGI (OVCAR-5 ovarian): 29.8 µM | TGI (UACC-257 melanoma): 11.6 µM | TGI (SK-MEL-28 melanoma): 8.63 µM | TGI (DMS 114 small cell lung): 8.38 µM | TGI (SK-OV-3 ovarian): 41.3 µM | TGI (PC-3 prostate): 28.5 µM | TGI (KM20L2 colon): 13.7 µM | TGI (TK-10 renal): 7.88 µM | TGI (NCI/ADR-RES ovarian): 34.2 µM | TGI (SK-MEL-5 melanoma): 18 µM | TGI (BT-549 breast): 18.1 µM | TGI (MDA-MB-435): 26.4 µM | TGI (IGROV1 ovarian): 22 µM | TGI (M14 melanoma): 5.66 µM | TGI (EKVX NSCLC): 44.8 µM | TGI (CCRF-CEM leukemia): 1.08 µM | TGI (MDA-MB-231 breast): 17.3 µM | TGI (DMS 273 small cell lung): 11.6 µM | TGI (COLO 205 colon): 1.39 µM | TGI (U251 CNS): 28.8 µM | TGI (SNB-19 CNS): 40.3 µM | TGI (XF 498 CNS): 5.1 µM | TGI (SF-539 CNS): 9.56 µM | TGI (SW-620 colon): 5.08 µM | TGI (HOP-18 NSCLC): 9.35 µM | TGI (HL-60(TB) leukemia): 0.631 µM | TGI (RXF 393 renal): 24.9 µM | TGI (OVCAR-8 ovarian): 3.17 µM | TGI (SK-MEL-2 melanoma): 13.2 µM | TGI (786-0 renal): 5.78 µM | TGI (NCI-H23 lung): 22.2 µM | TGI (LXFL 529 NSCLC): 3.31 µM | TGI (HCT-15 colon): 5.96 µM | TGI (ACHN renal): 3.01 µM | TGI (MCF7 breast): 21.4 µM | TGI (A549 NSCLC): 42.8 µM | TGI (OVCAR-4 ovarian): 22.1 µM | TGI (T-47D breast): 4.62 µM | TGI (CAKI-1 renal): 5.18 µM | TGI (HCC-2998 colon): 22.4 µM | TGI (SF-268 CNS): 50.5 µM | TGI (UACC-62 melanoma): 20.4 µM | TGI (SF-295 CNS): 45.7 µM | TGI (M19-MEL melanoma): 7.52 µM | TGI (HCT-116 colon): 12.8 µM | TGI (UO-31 renal): 7.92 µM | TGI (MOLT-4 leukemia): 2.06 µM | TGI (HOP-92 NSCLC): 3.28 µM | TGI (HOP-62 NSCLC): 51.9 µM | TGI (RPMI-8226 leukemia): 9.19 µM | TGI (MALME-3M melanoma): 3.5 µM | TGI (OVCAR-3 ovarian): 10.4 µM | TGI (DLD-1 colon): 2.03 µM | TGI (KM12 colon): 39.4 µM | TGI (DU-145 prostate): 10.7 µM | TGI (HS 578T breast): > 87 µM | TGI (SNB-75 CNS): 39.9 µM | TGI (SN12C renal): 7.1 µM | TGI (SR leukemia): 5.27 µM | TGI (NCI-H226 lung): 29.4 µM | TGI (A498 renal): 25.6 µM | TGI (MDA-N): 22.5 µM | TGI (NCI-H460 lung): 44.6 µM | TGI (K-562 leukemia): 4.39 µM | TGI (SNB-78 CNS): 7.83 µM | TGI (LOX IMVI melanoma): 25.4 µM | TGI (HT29 colon): 25.1 µM

Cc1ccc(S(=O)(=O)NC(=O)C#CCOC2CCCCO2)cc1 (stereo not drawn)
TGI (OVCAR-5 ovarian): > 100 µM | TGI (UACC-257 melanoma): > 100 µM | TGI (SK-MEL-28 melanoma): > 100 µM | TGI (DMS 114 small cell lung): > 100 µM | TGI (KM20L2 colon): > 100 µM | TGI (TK-10 renal): > 100 µM | TGI (SK-MEL-5 melanoma): > 100 µM | TGI (M14 melanoma): > 100 µM | TGI (EKVX NSCLC): > 100 µM | TGI (CCRF-CEM leukemia): > 100 µM | TGI (DMS 273 small cell lung): > 100 µM | TGI (U251 CNS): > 100 µM | TGI (SNB-19 CNS): > 100 µM | TGI (XF 498 CNS): > 100 µM | TGI (SF-539 CNS): > 100 µM | TGI (SW-620 colon): > 100 µM | TGI (HOP-18 NSCLC): > 100 µM | TGI (HL-60(TB) leukemia): > 100 µM | TGI (RXF 393 renal): > 100 µM | TGI (OVCAR-8 ovarian): > 100 µM | TGI (SK-MEL-2 melanoma): > 100 µM | TGI (786-0 renal): > 100 µM | TGI (NCI-H23 lung): > 100 µM | TGI (LXFL 529 NSCLC): > 100 µM | TGI (HCT-15 colon): > 100 µM | TGI (ACHN renal): > 100 µM | TGI (A549 NSCLC): > 100 µM | TGI (OVCAR-4 ovarian): > 100 µM | TGI (CAKI-1 renal): > 100 µM | TGI (HCC-2998 colon): > 100 µM | TGI (UACC-62 melanoma): > 100 µM | TGI (SF-295 CNS): > 100 µM | TGI (M19-MEL melanoma): > 100 µM | TGI (HCT-116 colon): > 100 µM | TGI (UO-31 renal): > 100 µM | TGI (MOLT-4 leukemia): > 100 µM | TGI (HOP-92 NSCLC): > 100 µM | TGI (RPMI-8226 leukemia): > 100 µM | TGI (RXF-631 renal): > 100 µM | TGI (MALME-3M melanoma): > 100 µM | TGI (OVCAR-3 ovarian): > 100 µM | TGI (DLD-1 colon): > 100 µM | TGI (SNB-75 CNS): > 100 µM | TGI (SN12C renal): > 100 µM | TGI (SR leukemia): > 100 µM | TGI (NCI-H226 lung): > 100 µM | TGI (A498 renal): > 100 µM | TGI (NCI-H460 lung): > 100 µM | TGI (K-562 leukemia): > 100 µM | TGI (LOX IMVI melanoma): > 100 µM | TGI (HT29 colon): > 100 µM

COC(=O)C(C(=O)C(=O)Nc1ccc([N+](=O)[O-])cc1)c1nc2cc(C)c(C)cc2[nH]c1=O (stereo not drawn)
TGI (OVCAR-5 ovarian): > 100 µM | TGI (UACC-257 melanoma): > 100 µM | TGI (SK-MEL-28 melanoma): > 100 µM | TGI (DMS 114 small cell lung): > 100 µM | TGI (NCI-H522 lung): > 100 µM | TGI (SK-OV-3 ovarian): > 100 µM | TGI (KM20L2 colon): > 100 µM | TGI (TK-10 renal): > 100 µM | TGI (SK-MEL-5 melanoma): > 100 µM | TGI (IGROV1 ovarian): > 100 µM | TGI (M14 melanoma): > 100 µM | TGI (EKVX NSCLC): > 100 µM | TGI (CCRF-CEM leukemia): > 100 µM | TGI (COLO 205 colon): > 100 µM | TGI (U251 CNS): > 100 µM | TGI (SNB-19 CNS): > 100 µM | TGI (XF 498 CNS): > 100 µM | TGI (SF-539 CNS): > 100 µM | TGI (SW-620 colon): > 100 µM | TGI (HOP-18 NSCLC): > 100 µM | TGI (HL-60(TB) leukemia): > 100 µM | TGI (RXF 393 renal): > 100 µM | TGI (786-0 renal): > 100 µM | TGI (NCI-H23 lung): > 100 µM | TGI (LXFL 529 NSCLC): > 100 µM | TGI (HCT-15 colon): > 100 µM | TGI (ACHN renal): > 100 µM | TGI (A549 NSCLC): > 100 µM | TGI (OVCAR-4 ovarian): > 100 µM | TGI (CAKI-1 renal): > 100 µM | TGI (HCC-2998 colon): > 100 µM | TGI (SF-268 CNS): > 100 µM | TGI (UACC-62 melanoma): > 100 µM | TGI (SF-295 CNS): > 100 µM | TGI (M19-MEL melanoma): > 100 µM | TGI (HCT-116 colon): > 100 µM | TGI (UO-31 renal): > 100 µM | TGI (MOLT-4 leukemia): > 100 µM | TGI (HOP-92 NSCLC): > 100 µM | TGI (HOP-62 NSCLC): > 100 µM | TGI (RPMI-8226 leukemia): > 100 µM | TGI (MALME-3M melanoma): > 100 µM | TGI (OVCAR-3 ovarian): > 100 µM | TGI (DLD-1 colon): > 100 µM | TGI (KM12 colon): > 100 µM | TGI (SNB-75 CNS): > 100 µM | TGI (SN12C renal): > 100 µM | TGI (SR leukemia): > 100 µM | TGI (NCI-H226 lung): > 100 µM | TGI (A498 renal): > 100 µM | TGI (NCI-H460 lung): > 100 µM | TGI (K-562 leukemia): > 100 µM | TGI (SNB-78 CNS): > 100 µM | TGI (LOX IMVI melanoma): > 100 µM | TGI (HT29 colon): > 100 µM
